The subject of assay [1] is DOI-induced headshakes in male NIH Swiss mice. Briefly: DOI-Induced Headshake Model. The class given is in vivo. The settings on record: for % Inhibition (% Inh.) of DOI-induced headshakes: 45 min before DOI 5 mg/kg ip, percent suppression compared to vehicle group; for maximal suppression of DOI-induced headshakes: at the 100 mg/kg dose, oral, DOI 5 mg/kg ip. How it is done:
DOI-Induced Headshake Model
The administration of DOI to rodents has been used as a model for assessing potential efficacy of an atypical antipsychotic in treating psychosis and schizophrenia in certain patient populations with direct or indirect defects in the serotonin system.
Male NIH Swiss mice weighing 18-21 grams at the time of purchase were obtained from Harlan Sprague Dawley, Inc. (Prattville, Ala.). They were individually housed in wire-mesh cages at an ambient temperature of 21 to 23° C. with an automated 12/12 hour light/dark cycle. All […] had free access to 5001 Rodent Chow (Purina Mills, Brentwood, Mo.) and water except during experimental sessions. The principles of laboratory animal care (NIH publication No. 85-23, revised 1985) were followed.
DOI (purchased from Sigma, St. Louis, Mo.) was dissolved in saline, neutralized to pH ˜7.4 and injected ip in a volume of 10 ml/kg body weight. Injection solution was freshly prepared 30-45 minutes before each experiment. Methylcellulose (0.5%, Sigma) was used as oral dosing vehicle. All experiments were performed between 10 am and 4 pm during the day. The mice were fasted the evening before the experiment.
An enantiomer of Formula (Ib), Formula (IIb) or vehicle was orally administered at various concentrations ranging from 10 μg to 100 mg/kg. The animals were then injected with either saline or DOI (ip, 5 mg/kg) 45 minutes after the administration of either vehicle or an enantiomer of Formula (Ib) or Formula (IIb). Immediately upon DOI administration, the mice were placed in isolated observation cylinders made of a clear polycarbonate (27 cm in diameter and 55 cm deep). The number of randomized headshakes (or twitches) was recorded by an experienced observer using a hand held mechanical counter. Headshake responses were counted in consecutive 10-min periods.
DOI-Induced Headshake Model Analysis
All data are expressed as the mean ±SEM. The average of the headshakes in the vehicle group was expressed as 100%. The DOI-induced headshakes in groups treated with an enantiomer of Formula (Ib) and Formula (IIb) were expressed as percent suppression compared to the vehicle group. Statistical analysis for significant differences was done with the Student t test.

The subject of assay [2] is PPI-disruptive effects of PCP in Sprague-Dawley-derived male rats. As to the kind of experiment: Pre-Pulse Inhibition Model (PCP-disrupted PPI). In kind it is in vivo. The source says: Pre-Pulse Inhibition Model
The restorative effect of an enantiomer of Formula (Ib) on Pre-Pulse Inhibition (PPI) was compared to the disruptive PPI effect of phencyclidine (PCP). PCP is a NMDA antagonist having a wide range of psychotominetic effects in humans. The PPI disruption caused by PCP can be restored by some atypical antipsychotics, such as clozapine, olanzapine, and quetiapine.
Sprague-Dawley-derived male rats were housed in groups of two or three and maintained in a temperature-controlled environment on a 12 h:12 h light cycle. Except during behavioral testing, animals were given free access to food and water. Animals were handled daily for several days to desensitize them to handling stress before behavioral analysis.
An SR-LAB Startle System was used to control auditory stimuli and background noise level and to monitor startle response (±one msec). The average amplitude of the response was the main dependent variable used. Animals (n=20) were grouped according to a baseline mean PPI determined in a brief matching session. Baseline mean PPI testing consisted of 12 noise bursts at 118 dB[A] over a 40 msec time period followed by 3 noise bursts at 12 dB[A] over a 40 msec time period two days before testing with drug. […]
Data were collected online simultaneously from multiple startle chambers and analyzed using the Statview 5.0 statistical package.

As to `NC(=O)OC[C@H](OC(N)=O)c1ccccc1Cl` [Formula (IIb)], the “% Inhibition (% Inh.) of DOI-induced headshakes” value in assay [1] (0.01 mg/Kg oral) came to 1%; in assay [1] (0.1 mg/Kg oral) it was 11%; in assay [1] (1 mg/Kg oral), 4%; in assay [1] (10 mg/Kg oral), 41%; in assay [1] (30 mg/Kg oral) it was 36%; in assay [1] (100 mg/Kg oral) it was 43%. Besides, the “maximal suppression of DOI-induced headshakes” value in assay [1] was found to be 43%.
Take `NC(=O)OC[C@@H](O)c1ccccc1Cl` [Formula (Ib)]: in assay [2] (5, 15 and 45 mg/kg p.o.), the “dose-dependent reduction in startle magnitude” value is listed as “lacked an orderly dose-dependent reduction in startle magnitude”. For the same compound, the “block of the PPI-disruptive effects of PCP” value in assay [2] (acute treatment 5, 15 and 45 mg/kg p.o., 110 min before PCP 1.5 mg/kg s.c.) is “failed to significantly block the PPI-disruptive effects of PCP”. Besides, the “% Inhibition (% Inh.) of DOI-induced headshakes” value in assay [1] (0.01 mg/Kg oral) is given as 11%; in assay [1] (0.1 mg/Kg oral) it was 20%; in assay [1] (1 mg/Kg oral), 41%; in assay [1] (10 mg/Kg oral), 63%; in assay [1] (30 mg/Kg oral), 58%; in assay [1] (100 mg/Kg oral), 76%. Moreover, the “maximal suppression of DOI-induced headshakes” value in assay [1] is given as 76%.
